Results taken from patent US8618137B2 (priority 2008, dated 2013).
Like-named read-outs stand apart in the source and are kept apart here. Marks after values point to notes of the source that are not given here.

Tests used:
Format in all cases: in vivo
[1] = test system: Phytophthora infestans (the causal agent of tomato late blight); conditions: sprayed the day before inoculation, 100 = 100% disease control, 0 = no control
[2] = test system: Phytophthora infestans (the causal agent of tomato late blight); conditions: sprayed 17 h after inoculation, 100 = 100% disease control, 0 = no control
[3] = test system: Plasmopara viticola (the causal agent of grape downy mildew); test: Test A: grape downy mildew, grape seedlings inoculated then sprayed with test suspension, visual disease rating; conditions: 100 = 100% disease control, 0 = no control relative to controls
From the text: General protocol for preparing test suspensions for Tests A-B2: The test compounds were first dissolved in acetone in an amount equal to 3% of the final volume and then suspended at the desired concentration (in ppm) in acetone and purified water (50/50 mix by volume) containing 250 ppm of the surfactant Trem® 014 (polyhydric alcohol esters). The resulting test suspensions were then used in Tests A-B2. Spraying a 200 ppm test suspension to the point of run-off on the test plants was the equivalent of a rate of 800 g/ha.
Grape seedlings were inoculated with a spore suspension of Plasmopara viticola (the causal agent of grape downy mildew) and incubated in a saturated atmosphere at 20° C. for 24 h. After a short drying period, the grape seedlings were sprayed with the test suspension to the point of run-off, then moved to a growth chamber at 20° C. for 5 days, and then back into a saturated atmosphere at 20° C. for 24 h. Upon removal, visual disease ratings were made.
Results for Tests A-B2 are given in Table A. In the Table, a rating of 100 indicates 100% disease control and a rating of 0 indicates no disease control (relative to the controls). All results are for 10 ppm except where followed by an “*” which indicates 40 ppm and “**” which indicates 200 ppm.

Row | SMILES | Test B1 rating (disease control) ([1]; test suspension 40 ppm (*)) | Test B2 rating (disease control) ([2]; test suspension 40 ppm (*)) | Test A rating (disease control) ([3]; test suspension 40 ppm (*)) | Test B1 rating (disease control) ([1]; test suspension 10 ppm) [%] | Test B2 rating (disease control) ([2]; test suspension 10 ppm) [%] | Test A rating (disease control) ([3]; test suspension 10 ppm) [%]
1 | CC(C)=NOCC(=O)N1CCC(c2nc(C(=O)N(C)[C@H](C)c3ccccc3)cs2)CC1 [compound 15] | 39* % | 91* % | 99* % | – | – | –
2 | O=C(CON=CC(F)(F)F)N1CCC(c2nc(C3=NOC4(CCc5ccccc54)C3)cs2)CC1 (stereo not drawn) [compound 29] | – | – | – | 100 | 99 | 100
3 | CC(C)=NOCC(=O)N1CCC(c2nc(C3=NOC(c4ccccc4C#N)C3)cs2)CC1 (stereo not drawn) [compound 41] | – | – | – | 100 | 99 | 100
4 | CC(=NOCC(=O)N1CCC(c2nc(C3=NOC(c4ccccc4C#N)C3)cs2)CC1)C(F)(F)F (stereo not drawn) [compound 42] | – | – | – | 100 | 99 | 100
5 | CC(=NOCC(=O)N1CCC(c2nc(C3=NOC(n4c(=O)oc5ccccc54)C3)cs2)CC1)C(F)(F)F (stereo not drawn) [compound 43] | – | – | – | 100 | 99 | 100
6 | CC(=NOCC(=O)N1CCC(c2nc(C3=NOC(N4C(=O)c5ccccc5C4=O)C3)cs2)CC1)C(F)(F)F (stereo not drawn) [compound 44] | – | – | – | 100 | 99 | 100
7 | CC(C)=NOCC(=O)N1CCC(c2nc(C3=NOC(N4C(=O)c5ccccc5C4=O)C3)cs2)CC1 (stereo not drawn) [compound 45] | – | – | – | 95 | 99 | 96
8 | CC1=NN(CC(=O)N2CCC(c3nc(C4=NOC(c5c(F)cccc5F)C4)cs3)CC2)C(C)(C)C1 (stereo not drawn) [compound 46] | 90* % | 81* % | 9* % | – | – | –
9 | CN1C(=O)c2ccccc2C12CC(c1csc(C3CCN(C(=O)CON=CC(F)(F)F)CC3)n1)=NO2 (stereo not drawn) [compound 47] | – | – | – | 100 | 99 | 100
10 | Cn1c(=O)n(C2CC(c3csc(C4CCN(C(=O)CON=CC(F)(F)F)CC4)n3)=NO2)c2ccccc21 (stereo not drawn) [compound 48] | – | – | – | 100 | 99 | 100
11 | CC(=NOCC(=O)N1CCC(c2nc(C3=NOC(n4c(=O)n(C)c5ccccc54)C3)cs2)CC1)C(F)(F)F (stereo not drawn) [compound 49] | – | – | – | 100 | 99 | 100
12 | CC(=NOCC(=O)N1CCC(c2nc(C3=NOC4(C3)c3ccccc3C(=O)N4C)cs2)CC1)C(F)(F)F (stereo not drawn) [compound 50] | – | – | – | 100 | 99 | 100
13 | N#CC(C#N)=NOCC(=O)N1CCC(c2nc(C3=NOC(c4c(F)cccc4F)C3)cs2)CC1 (stereo not drawn) [compound 51] | – | – | – | 100 | 99 | 99
